Several values for one entry are separate records, joined by “and”; a condition that tells them apart may be missing. Equal values may be shown once.
Assay: molar heat capacity at constant pressure
Conditions: 101.33 kPa, Small (less than 1 g) adiabatic calorimetry

CCOS(=O)(=O)[O-].CCn1cc[n+](C)c1 [1-ethyl-3-methylimidazolium ethyl sulfate]
Conditions | molar heat capacity at constant pressure
180.75 K, Glass | 245 J/K/mol
181.34 K, Glass | 247.6 J/K/mol
182.03 K, Glass | 250.7 J/K/mol
182.57 K, Glass | 253.8 J/K/mol
183.25 K, Glass | 259.2 J/K/mol
183.91 K, Glass | 266.1 J/K/mol
184.33 K, Glass | 269.6 J/K/mol
185.05 K, Liquid | 286.4 J/K/mol
185.68 K, Liquid | 306.2 J/K/mol
185.91 K, Liquid | 312.8 J/K/mol
186.66 K, Liquid | 340.5 J/K/mol
187.36 K, Liquid | 351.6 J/K/mol and 351.8 J/K/mol
188.23 K, Liquid | 351.6 J/K/mol
188.86 K, Liquid | 353 J/K/mol
189.2 K, Liquid | 353 J/K/mol
189.84 K, Liquid | 354 J/K/mol
190 K, Liquid | 354.1 J/K/mol
190.38 K, Liquid | 354.4 J/K/mol
191.46 K, Liquid | 354.4 J/K/mol
192.04 K, Liquid | 354.7 J/K/mol
193.08 K, Liquid | 354.7 J/K/mol
193.85 K, Liquid | 354.7 J/K/mol
194.7 K, Liquid | 354.7 J/K/mol
195.65 K, Liquid | 354.9 J/K/mol
196.33 K, Liquid | 354.9 J/K/mol
197.47 K, Liquid | 355.1 J/K/mol
197.95 K, Liquid | 355.1 J/K/mol
199.29 K, Liquid | 355.4 J/K/mol
199.58 K, Liquid | 355.4 J/K/mol
200 K, Liquid | 355.5 J/K/mol
201.11 K, Liquid | 355.6 J/K/mol
201.27 K, Liquid | 355.6 J/K/mol
201.65 K, Liquid | 355.9 J/K/mol
202.93 K, Liquid | 356.1 J/K/mol
203 K, Liquid | 355.9 J/K/mol
203.57 K, Liquid | 356.1 J/K/mol
204.74 K, Liquid | 356.1 J/K/mol
204.76 K, Liquid | 356.6 J/K/mol
205.5 K, Liquid | 356.3 J/K/mol
206.48 K, Liquid | 356.6 J/K/mol
206.59 K, Liquid | 356.8 J/K/mol
207.44 K, Liquid | 356.8 J/K/mol
208.23 K, Liquid | 356.8 J/K/mol
208.43 K, Liquid | 357 J/K/mol
209.37 K, Liquid | 357.3 J/K/mol
209.97 K, Liquid | 357 J/K/mol
210 K, Liquid | 357.2 J/K/mol
210.26 K, Liquid | 357.3 J/K/mol
211.31 K, Liquid | 357.5 J/K/mol
211.72 K, Liquid | 357.5 J/K/mol
212.11 K, Liquid | 357.7 J/K/mol
213.25 K, Liquid | 358 J/K/mol
213.47 K, Liquid | 357.7 J/K/mol
213.95 K, Liquid | 358 J/K/mol
215.19 K, Liquid | 358.2 J/K/mol
215.23 K, Liquid | 358 J/K/mol
215.8 K, Liquid | 358.5 J/K/mol
217.12 K, Liquid | 358.7 J/K/mol
217.65 K, Liquid | 358.7 J/K/mol
219.06 K, Liquid | 359.2 J/K/mol
219.5 K, Liquid | 359.2 J/K/mol
220 K, Liquid | 359.2 J/K/mol
221 K, Liquid | 359.4 J/K/mol
221.36 K, Liquid | 359.6 J/K/mol
222.94 K, Liquid | 359.9 J/K/mol
223.21 K, Liquid | 359.9 J/K/mol
224.88 K, Liquid | 360.3 J/K/mol
225.07 K, Liquid | 360.3 J/K/mol
226.82 K, Liquid | 361.1 J/K/mol
226.93 K, Liquid | 360.8 J/K/mol
228.76 K, Liquid | 361.3 J/K/mol
228.8 K, Liquid | 361.3 J/K/mol
230 K, Liquid | 361.6 J/K/mol
230.66 K, Liquid | 361.8 J/K/mol
230.7 K, Liquid | 361.8 J/K/mol
232.53 K, Liquid | 362.2 J/K/mol
232.64 K, Liquid | 362.2 J/K/mol
234.39 K, Liquid | 362.7 J/K/mol
234.58 K, Liquid | 362.7 J/K/mol
236.26 K, Liquid | 363.2 J/K/mol
236.53 K, Liquid | 363.4 J/K/mol
238.13 K, Liquid | 363.9 J/K/mol
238.47 K, Liquid | 363.9 J/K/mol
240 K, Liquid | 364.3 J/K/mol
240.01 K, Liquid | 364.4 J/K/mol
240.41 K, Liquid | 364.6 J/K/mol
241.88 K, Liquid | 364.8 J/K/mol
242.36 K, Liquid | 365.1 J/K/mol
